From patent US5231182A, “Method of making certain aryl containing amides” (American Cyanamid Company, priority 1991, dated 1993)
Values joined by “and” are separate entries in the source; they are usually repeats but may differ in a detail not shown here. Equal values may be shown once. Where a name gives a salt, the structure may show the parent alone.

Columns and labels:
PAF induced lethality = PAF induced lethality in mice; format: in vivo; settings: PAF 150 μg/kg IV
Description: PAF given I.V. to mice causes an immediate hypotensive shock leading to death in 1 hour or less. Compounds are given intraperitoneally or P.O. at various times before the PAF challenge. Animals alive after 2 hours are counted and the activity of test compounds expressed as % survival corrected for any control (saline treated) animals which survived the PAF challenge.
Effect of Compound Given I.V. or P.O. in Protecting
Mice from a Lethal Challenge of PAF^a
^a lethal challenge of PAF is 150 μg/kg IV.

PAF receptor = target: T1, PAF receptor (Oryctolagus cuniculus, UniProt G1TEI7); experiment: Platelet Activating Factor antagonism in vitro: inhibition of PAF induced platelet aggregation in rabbit platelet rich plasma; format: cell-based, rabbit (New Zealand White); settings: PAF chall conc 5.0000E-08 M
T1 construct: centrifuged at 800 rpm for 10-15 minutes at room temperature to recover the platelet rich plasma (PRP); endogenous in cells; host or cells: platelets in citrated platelet rich plasma from male New Zealand White rabbits (Oryctolagus cuniculus)
T1 sequence (G1TEI7 1-342): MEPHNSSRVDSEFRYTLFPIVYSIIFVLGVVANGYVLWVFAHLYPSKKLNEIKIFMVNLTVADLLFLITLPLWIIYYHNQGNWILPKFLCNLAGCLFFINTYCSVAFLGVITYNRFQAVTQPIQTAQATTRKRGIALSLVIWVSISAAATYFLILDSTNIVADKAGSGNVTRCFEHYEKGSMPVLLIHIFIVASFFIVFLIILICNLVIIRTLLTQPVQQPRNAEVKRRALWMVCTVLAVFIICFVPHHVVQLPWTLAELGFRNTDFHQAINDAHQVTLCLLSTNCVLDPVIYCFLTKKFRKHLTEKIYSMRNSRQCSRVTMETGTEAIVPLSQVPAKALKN
Description: Test compounds are evaluated as PAF receptor antagonists in vitro by measuring inhibition of PAF (platelet activating factor) induced platelet aggregation. Platelet aggregation is measured by a modification of the method described in […], et. al., J. Med. Chem., 27 1174, 1984. […] All syringes and pipets are plastic. The blood is gently mixed and immediately centrifuged at 800 rpm for 10-15 minutes at room temperature to recover the platelet rich plasma (PRP). Platelet poor plasma (PPP) is prepared by centrifuging PRP at 2800 rpm for 10 minutes at room temperature. Dilutions (1:3000) of PRP in Isoton® diluent are made and platelet counts are determined on a Coulter Thrombocounter which is standardized with platelet reference standards (Interscience Platelet Control, Portland, Oreg.). PRP platelet counts are adjusted to approximately 400,000-500,000 platelets/μl by the addition of PPP. L-PAF (Platelet Activating Factor) is obtained from Calbiochem. […] All solutions are made up in plastic tubes, stored on ice and protected from heat and light. Solutions are prepared fresh or frozen at -20° C. and used within 48 hours. Incubation mixtures consisted of 400 μl PRP, 50 μl of saline diluent or test compound and 50 μl of PAF agonist. More specifically, 400 μl of PRP is stabilized in a cuvette for 1-2 minutes at 37° C. in the aggregometer to achieve a stable baseline, then 50 μl of saline or test compound is added and incubated for 5 minutes before addition of the challenge concentration of PAF. A submaximal concentration is determined from the dose response curve for PAF for that experiment. In general, the challenge concentration is 5E-8 or IE-7M. Aggregation is monitored for 5 minutes. Samples containing test compound or diluent are run simultaneously for comparison. Test compounds are initially evaluated at a screening concentration of 1E-5M. […] The recording equipment consists of a dual channel Chronolog aggregometer connected to a dual channel 10MV full scale deflection Omniscribe chart recorder (Houston Instruments). The chart recorder is calibrated daily with the use of a suspension of Bio-Rad latex beads (S-X 12 400 mesh) which has a density slightly greater than rabbit PRP. […] These limits defined a full scale deflection. The aggregation traces are analyzed by a digitizing method (C. Kohler and B. Zoltan, J. Pharm. Methods, 12, 113, 1984) with x, y coordinate data stored in a computer file. A suitable program computes parameters of interest such as the magnitude of aggregation. | ^a dose of compound that gives the indicated % inhibition. | ^b the % inhibition of PAF induced platelet aggregation. | ^c the molar concentration of compound that will inhibit 50% of the | platelet aggretation induced by PAF given at the indicated PAF challenge | concentration.

[1] = tested on: Endotoxin induced shock and mortality; experiment: Endotoxin induced shock and mortality in mice: low dose, chronic mouse endotoxemia; format: in vivo, Male Balb/c mice
Description: Endotoxin administration produces a shock-like state characterized by vascular permeability changes, hypotension, neutropenia, thrombocytopenia,multiple organ damage and death. The major mediators released after endotoxin injection are TNF (tumor necrosis factor), PAF (platelet activating factor) and […] (interleukin I). PAF administration mimics the signs and symptoms of endotoxin induced shock and death and endotoxin also induces the release of PAF. Therefore, the effects of endotoxin should be blocked with a PAF antagonist.
Male Balb/c mice (approximately 20 g) are obtained from Charles River Laboratories and used after a one-two week acclimation period. Animals are given (ip) test compound dissolved in saline or water (sonicated and heated) at different time intervals prior to and after the ip injection of endotoxin (usually 2 hours before LPS endotoxin, and 3-4 hours after). Sigma E. Coli endotoxin, 0111:B4, phenol extraction, catalog #L2630 is used for these studies.
For the chronic endotoxin shock model, a lower dose of endotoxin is administered (generally 15 to 20 mg/kg i.p). This dose gives an LD80 in two to four days following LPS administration. Test compounds are given 2 hours before LPS and 3-4 hours after on the first day, followed by 3 or 4 consecutive days of BID dosing. The number of survivors in each group is recorded each day for a period of 5 to 7 days.
Effect of Compounds Given i.p. in Low Dose, Chronic Mouse Endoxemia

| Structure (SMILES) | % Survival ([1]; day 0, dose 10 mg/kg i.p.) | No Surv./tot. ([1]; day 0, dose 10 mg/kg i.p.) | % Survival ([1]; day 1, dose 10 mg/kg i.p.) | No Surv./tot. ([1]; day 1, dose 10 mg/kg i.p.) | % Survival ([1]; day 2, dose 10 mg/kg i.p.) | No Surv./tot. ([1]; day 2, dose 10 mg/kg i.p.) | % Survival ([1]; day 3, dose 10 mg/kg i.p.) | No Surv./tot. ([1]; day 3, dose 10 mg/kg i.p.) | % Survival ([1]; day 4, dose 10 mg/kg i.p.) | No Surv./tot. ([1]; day 4, dose 10 mg/kg i.p.) | % Survival ([1]; day 5, dose 10 mg/kg i.p.) | No Surv./tot. ([1]; day 5, dose 10 mg/kg i.p.) | No Surv./tot. ([1]; day 6, dose 10 mg/kg i.p.) | % Survival ([1]; day 0, dose 20 mg/kg i.p.) | No Surv./tot. ([1]; day 0, dose 20 mg/kg i.p.) | % Survival ([1]; day 1, dose 20 mg/kg i.p.) | No Surv./tot. ([1]; day 1, dose 20 mg/kg i.p.) | % Survival ([1]; day 2, dose 20 mg/kg i.p.) | No Surv./tot. ([1]; day 2, dose 20 mg/kg i.p.) | % Survival ([1]; day 3, dose 20 mg/kg i.p.) | also measured |
| --- | --- | --- | --- | --- | --- | --- | --- | --- | --- | --- | --- | --- | --- | --- | --- | --- | --- | --- | --- | --- | --- |
| CCCCCCCCCCCCCCOc1ccc(CN(C(C)=O)c2cccc(C[n+]3csc(C)c3)c2)cc1.[Br-] [3-[[3-[Acetyl[[4-(tetradecyloxy)phenyl]methyl]amino]phenyl]methyl]-5-methylthiazolium bromide] | 100% | 30/30 | 73% | 22/30 | 33% | 10/30 | 26% | 8/30 | 23% | 7/30 | 23% | 7/30 | 7/30 |  |  |  |  |  |  |  | % Survival (PAF induced lethality; I.V. 1 mg/kg): 83%; % Survival (PAF induced lethality; I.V. .25 mg/kg): 100%; % Survival (PAF induced lethality; I.V. .5 mg/kg): 83%; % Survival (PAF induced lethality; P.O. 5 mg/kg): 52%; % Survival (PAF induced lethality; P.O. 10 mg/kg): 75%; % Survival (PAF induced lethality; P.O. 20 mg/kg): 75%; % INH (inhibition of PAF induced platelet aggregation) (PAF receptor; dose .00001 M): 100.0% and 90.0%; % Survival ([1]; day 6, dose 10 mg/kg i.p.): 23% |
| CCCCCCCCCCCCCCOc1ccc(CC(=O)Nc2cccc(C[n+]3ccsc3)c2)cc1.[Br-] [3-[[3-[[[-4-(tetradecyloxy)phenyl]acetyl]amino]phenyl]methyl]thiazolium bromide] | 100% | 30/30 | 83% | 25/30 | 66% | 20/30 | 63% | 19/30 | 63% | 19/30 | 63% | 19/30 | 19/30 | 100% | 30/30 | 90% | 27/30 | 43% | 13/30 | 40% | % Survival (PAF induced lethality; P.O. 40 mg/kg): 40%; % INH (inhibition of PAF induced platelet aggregation) (PAF receptor; dose .000001 M): 93.0% and 62.0%; No Surv./tot. ([1]; day 3, dose 20 mg/kg i.p.): 12/30; % Survival ([1]; day 4, dose 20 mg/kg i.p.): 40%; No Surv./tot. ([1]; day 4, dose 20 mg/kg i.p.): 12/30; % Survival ([1]; day 5, dose 20 mg/kg i.p.): 40%; No Surv./tot. ([1]; day 5, dose 20 mg/kg i.p.): 12/30; No Surv./tot. ([1]; day 6, dose 20 mg/kg i.p.): 12/30; % Survival ([1]; day 7, dose 10 mg/kg i.p.): 63%; No Surv./tot. ([1]; day 7, dose 10 mg/kg i.p.): 19/30; % Survival ([1]; day 7, dose 20 mg/kg i.p.): 40%; No Surv./tot. ([1]; day 7, dose 20 mg/kg i.p.): 12/30 |
| CCCCCCCCCCCCCCOc1ccc(CN(C(=O)NC)c2cccc(C[n+]3csc(C)c3)c2)cc1.[Br-] [5-Methyl-3-[[3-[[(methylamino)carbonyl]-[[4-(tetradecyloxy)phenyl]methyl]amino]phenyl]methyl]thiazolium bromide] | 100% | 30/30 | 80% | 24/30 | 46% | 14/30 | 46% | 14/30 | 46% | 14/30 | 46% | 14/30 | 14/30 | 100% | 30/30 | 90% | 27/30 | 23% | 7/30 | 20% | No Surv./tot. ([1]; day 3, dose 20 mg/kg i.p.): 6/30; % Survival ([1]; day 4, dose 20 mg/kg i.p.): 20%; No Surv./tot. ([1]; day 4, dose 20 mg/kg i.p.): 6/30; % Survival ([1]; day 5, dose 20 mg/kg i.p.): 20%; No Surv./tot. ([1]; day 5, dose 20 mg/kg i.p.): 6/30; No Surv./tot. ([1]; day 6, dose 20 mg/kg i.p.): 6/30; % Survival ([1]; day 7, dose 10 mg/kg i.p.): 46%; No Surv./tot. ([1]; day 7, dose 10 mg/kg i.p.): 14/30; % Survival ([1]; day 7, dose 20 mg/kg i.p.): 20%; No Surv./tot. ([1]; day 7, dose 20 mg/kg i.p.): 6/30 |
| CCCCCCCCCCCCCCOc1ccc(CC(=O)Nc2ccc(C[n+]3csc(C)c3)cc2)cc1.[Br-] [5-Methyl-3-[[4-[[[4-(tetradecyloxy)phenyl]acetyl]amino]phenyl]methyl]thiazolium bromide] | 100% | 30/30 | 100% | 30/30 | 80% | 24/30 | 80% | 24/30 | 80% | 24/30 | 80% | 24/30 | 24/30 | 100% | 30/30 | 90% | 27/30 | 60% | 18/30 | 60% | % Survival (PAF induced lethality; P.O. 5 mg/kg): 32%; % Survival (PAF induced lethality; P.O. 20 mg/kg): 32%; % INH (inhibition of PAF induced platelet aggregation) (PAF receptor; dose .00001 M): 100.0%; No Surv./tot. ([1]; day 3, dose 20 mg/kg i.p.): 18/30; % Survival ([1]; day 4, dose 20 mg/kg i.p.): 60%; No Surv./tot. ([1]; day 4, dose 20 mg/kg i.p.): 18/30; % Survival ([1]; day 5, dose 20 mg/kg i.p.): 60%; No Surv./tot. ([1]; day 5, dose 20 mg/kg i.p.): 18/30; % Survival ([1]; day 6, dose 10 mg/kg i.p.): 80%; % Survival ([1]; day 6, dose 20 mg/kg i.p.): 56%; No Surv./tot. ([1]; day 6, dose 20 mg/kg i.p.): 17/30 |
| CCCCCCCCCCCCCCOc1ccc(CC(=O)Nc2cccc(-n3ccnc3C)c2)cc1 [N-[3-(2-Methyl-1H-imidazol-1-yl)phenyl-4-(tetradecyloxy)benzeneacetamidemonohydrochloride] |  |  |  |  |  |  |  |  |  |  |  |  |  |  |  |  |  |  |  |  | % INH (inhibition of PAF induced platelet aggregation) (PAF receptor; dose .00001 M, monohydrochloride): 39.0% |
